In the experiment the target is T1, recombinant human SAE enzyme (Homo sapiens, UniProt Q9UBT2).
T1 sequence (Q9UBT2 1-640): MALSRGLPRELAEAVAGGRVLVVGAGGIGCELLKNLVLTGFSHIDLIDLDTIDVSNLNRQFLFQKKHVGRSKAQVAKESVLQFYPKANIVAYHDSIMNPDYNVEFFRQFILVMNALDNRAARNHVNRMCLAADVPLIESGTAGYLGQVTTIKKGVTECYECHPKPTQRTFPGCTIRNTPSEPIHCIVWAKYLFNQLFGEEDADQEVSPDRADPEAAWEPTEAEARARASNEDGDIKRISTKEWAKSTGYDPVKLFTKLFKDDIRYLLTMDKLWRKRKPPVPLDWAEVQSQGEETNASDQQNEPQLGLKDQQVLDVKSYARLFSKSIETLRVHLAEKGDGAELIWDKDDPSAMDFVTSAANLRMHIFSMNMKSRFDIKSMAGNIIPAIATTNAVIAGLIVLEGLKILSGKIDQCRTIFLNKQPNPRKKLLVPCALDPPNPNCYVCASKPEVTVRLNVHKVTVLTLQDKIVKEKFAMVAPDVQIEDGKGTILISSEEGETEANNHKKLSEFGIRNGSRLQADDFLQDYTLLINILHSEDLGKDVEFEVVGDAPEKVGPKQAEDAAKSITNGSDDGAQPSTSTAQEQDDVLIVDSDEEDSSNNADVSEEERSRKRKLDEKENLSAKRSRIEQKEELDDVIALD
T1 sequence (Q9UBE0 1-346 partner): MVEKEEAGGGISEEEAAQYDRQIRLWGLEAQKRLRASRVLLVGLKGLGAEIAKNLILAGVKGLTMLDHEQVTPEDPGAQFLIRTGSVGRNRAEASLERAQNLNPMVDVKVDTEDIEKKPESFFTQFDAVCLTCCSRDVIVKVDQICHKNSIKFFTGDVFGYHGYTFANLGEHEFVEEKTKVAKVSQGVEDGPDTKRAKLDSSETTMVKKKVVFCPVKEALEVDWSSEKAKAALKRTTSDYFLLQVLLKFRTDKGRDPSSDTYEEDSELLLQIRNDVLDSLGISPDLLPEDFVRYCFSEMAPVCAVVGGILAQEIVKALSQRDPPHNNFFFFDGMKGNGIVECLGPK
As to the kind of experiment: SAE HTRF Enzyme Assay. Conditions: for IC50: class symbols A-C; for inhibition at 0.111 µM / Percent Inhibition: compound concentration 0.111 μM; for inhibition at 0.111 µM: read-out: Percent Inhibition; for Percent Inhibition: 0.111 µM. It counts as biochemical. The method, then: The SAE enzymatic reaction totals 50 μl and contains 50 mM HEPES Hemisodium (pH 7.5), 0.05% BSA, 5 mM MgCl2, 0.5 μM ATP, 250 μM GSH, 0.01 μM Ubc9-GST, 0.125 μM Sumo-Flag and 0.11 nM recombinant human SAE enzyme. The enzymatic reaction mixture with and without inhibitor, Is incubated at 24° C. for 105 min in a 384-well plate before termination with […] of Stop/Detection buffer (0.1M HEPES Hemisodium pH 7.5, 0.05% Tween20, 20 mM EDTA, 410 mM KF, 0.53 nM Europium-Cryptate labeled monoclonal anti-Flag M2 Antibody (CisBio International) and 8.125 μg/ml PHYCOLINK goat anti-GST allophycocyanin (XL-APC) antibody (Prozyme)). After incubation for 2 hours at 24° C., quantification of FRET is performed on the Pherostar™ (BMG Labtech). Percentage inhibition values at a single concentration or enzyme inhibition (IC50) values are determined from those curves. One skilled in the art will appreciate that the values generated either as percentage inhibition at a single concentration or IC50 values are subject to experimental variation.
(In general: TR-FRET usually uses a lanthanide donor and a delayed reading to cut background.)

Structures are written as SMILES.

As usually defined, the IC50 is the concentration that gives 50% inhibition. What is called inhibition is the share of the control response that was lost under treatment. `C=C[S+]([O-])c1cccc(Cn2ccc(C(=O)c3cncnc3N[C@@H]3C[C@H](COS(N)(=O)=O)[C@@H](O)[C@H]3O)n2)c1` (mixture of isomers) [Compound I-74, [(1R,2R,3S,4R)-2,3-dihydroxy-4-{[5-({1-[3-((R)-vinylsulfinyl)benzyl]-1H-pyrazol-3-yl}carbonyl)pyrimidin-4-yl]amino}cyclopentyl]methyl sulfamate and [(1R,2R,3S,4R)-2,3-dihydroxy-4-{[5-({1-[3-((S)-vinylsulfinyl)benzyl]-1H-pyrazol-3-yl}carbonyl)pyrimidin-4-yl]amino}cyclopentyl]methyl sulfamate]: the IC50 was less than 0.01 µM and the inhibition at 0.111 µM worked out at 92%.

For `CC1(C)CCC(Cn2ccc(C(=O)c3cncnc3N[C@@H]3C[C@H](COS(N)(=O)=O)[C@@H](O)C3)n2)O1` (mixture of isomers) [Compound I-77, [(1R,2S,4R)-4-({5-[(1-{[(2R)-5,5-dimethyltetrahydrofuran-2-yl]methyl}-1H-pyrazol-3-yl)carbonyl]pyrimidin-4-yl}amino)-2-hydroxycyclopentyl]methyl sulfamate and [(1R,2S,4R)-4-({5-[(1-{[(2S)-5,5-dimethyltetrahydrofuran-2-yl]methyl}-1H-pyrazol-3-yl)carbonyl]pyrimidin-4-yl}amino)-2-hydroxycyclopentyl]methyl sulfamate], the IC50 was in the range of 0.1 to 1 µM and the inhibition at 0.111 µM came to 51%.

On to `CC1(C)CCC(Cn2ccc(C(=O)c3cncnc3N[C@@H]3C[C@H](COS(N)(=O)=O)[C@@H](O)[C@@H]3F)c2)O1` (mixture of isomers) [Compound I-250, [(1R,2R,3R,4R)-4-({5-[(1-{[(2R)-5,5-dimethyltetrahydrofuran-2-yl]methyl}-1H-pyrrol-3-yl)carbonyl]pyrimidin-4-yl}amino)-3-fluoro-2-hydroxycyclopentyl]methyl sulfamate and [(1R,2R,3R,4R)-4-({5-[(1-{[(2S)-5,5-dimethyltetrahydrofuran-2-yl]methyl}-1H-pyrrol-3-yl)carbonyl]pyrimidin-4-yl}amino)-3-fluoro-2-hydroxycyclopentyl]methyl sulfamate], for which the IC50 is 0.01 to 0.1 µM and the inhibition at 0.111 µM worked out at 86%.

`NS(=O)(=O)OC[C@H]1C[C@@H](Nc2ncncc2C(=O)c2ccn(CC3CCCO3)n2)C[C@@H]1O` (mixture of isomers) [Compound I-293, [(1R,2S,4R)-2-hydroxy-4-{[5-({1-[(2R)-tetrahydrofuran-2-ylmethyl]-1H-pyrazol-3-yl}carbonyl)pyrimidin-4-yl]amino}cyclopentyl]methyl sulfamate and [(1R,2S,4R)-2-hydroxy-4-{[5-({1-[(2S)-tetrahydrofuran-2-ylmethyl]-1H-pyrazol-3-yl}carbonyl)pyrimidin-4-yl]amino}cyclopentyl]methyl sulfamate]: the IC50 lay in the range of 0.1 to 1 µM and the inhibition at 0.111 µM was found to be 38%.

On to `NS(=O)(=O)OC[C@H]1C[C@@H](Nc2ncncc2C(=O)c2ccn(C3C=CCCC3)n2)C[C@@H]1O` (mixture of isomers) [Compound I-302, [(1R,2S,4R)-4-{[5-({1-[(1R)-cyclohex-2-en-1-yl]-1H-pyrazol-3-yl}carbonyl)pyrimidin-4-yl]amino}-2-hydroxycyclopentyl]methyl sulfamate and [(1R,2S,4R)-4-{[5-({1-[(1S)-cyclohex-2-en-1-yl]-1H-pyrazol-3-yl}carbonyl)pyrimidin-4-yl]amino}-2-hydroxycyclopentyl]methyl sulfamate], for which the 50% inhibitory concentration (IC50) was in the range of 0.1 to 1 µM and the inhibition at 0.111 µM amounted to 34%.

Turning to `NS(=O)(=O)OC[C@H]1C[C@@H](Nc2ncncc2C(=O)c2ccn(CC3CCOC3)n2)C[C@@H]1O` (mixture of isomers) [Compound I-332, [(1R,2S,4R)-2-hydroxy-4-{[5-({1-[(3R)-tetrahydrofuran-3-ylmethyl]-1H-pyrazol-3-yl}carbonyl)pyrimidin-4-yl]amino}cyclopentyl]methyl sulfamate and [(1R,2S,4R)-2-hydroxy-4-{[5-({1-[(3S)-tetrahydrofuran-3-ylmethyl]-1H-pyrazol-3-yl}carbonyl)pyrimidin-4-yl]amino}cyclopentyl]methyl sulfamate], the IC50 lay in the range of 0.1 to 1 µM and the inhibition at 0.111 µM worked out at 16%.

With `NS(=O)(=O)OC[C@H]1C[C@@H](Nc2ncncc2C(=O)c2ccn(CC3CC3c3ccccc3)c2)C[C@@H]1O` (mixture of isomers) [Compound I-339, [(1R,2S,4R)-2-hydroxy-4-{[5-({1-[(1S,2S)-(2-phenylcyclopropyl)methyl]-1H-pyrrol-3-yl}carbonyl)pyrimidin-4-yl]amino}cyclopentyl]methyl sulfamate and [(1R,2S,4R)-2-hydroxy-4-{[5-({1-[(1R,2R)-(2-phenylcyclopropyl)methyl]-1H-pyrrol-3-yl}carbonyl)pyrimidin-4-yl]amino}cyclopentyl]methyl sulfamate], the half-maximal inhibitory concentration (IC50) is less than 0.01 µM and the inhibition at 0.111 µM was found to be 93%.

As for `COC(C)c1cc(C(=O)c2cncnc2N[C@@H]2C[C@H](COS(N)(=O)=O)[C@@H](O)C2)nn1Cc1cccc(Br)c1` (mixture of isomers) [Compound I-369, [(1R,2S,4R)-4-{[5-({1-(3-bromobenzyl)-5-[(1S)-1-methoxyethyl]-1H-pyrazol-3-yl}carbonyl)pyrimidin 4-yl]amino)-2-hydroxycyclopentyl]methyl sulfamate and [(1R,2S,4R)-4-{[5-({1-(3-bromobenzyl)-5-[(1R)-1-methoxyethyl]-1H-pyrazol-3-yl}carbonyl)pyrimidin-4-yl]amino}-2-hydroxycyclopentyl]methyl sulfamate], the IC50 is less than 0.01 µM and the inhibition at 0.111 µM was 98%.

As for `NS(=O)(=O)OC[C@H]1C[C@@H](Nc2ncncc2C(=O)c2ccn(CC3CC3c3ccccc3)c2)[C@@H](F)[C@@H]1O` (single isomer, unassigned) [Compound I-9, [(1R,2R,3R,4R)-3-fluoro-2-hydroxy-4-{[5-({1-[(1R,2R)-(2-phenylcyclopropyl)methyl]-1H-pyrrol-3-yl}carbonyl)pyrimidin-4-yl]amino}cyclopentyl]methyl sulfamate or [(1R,2R,3R,4R)-3-fluoro-2-hydroxy-4-{[5-({1-[(1S,2S)-(2-phenylcyclopropyl)methyl]-1H-pyrrol-3-yl}carbonyl)pyrimidin-4-yl]amino}cyclopentyl]methyl sulfamate], the IC50 was in the range of 0.01 to 0.1 µM and the “Percent Inhibition” value is 91%.

Take `C#Cc1cccc([C@@H](C)n2ccc(C(=O)c3cncnc3N[C@@H]3C[C@H](COS(N)(=O)=O)[C@@H](O)C3)n2)c1` (single isomer, unassigned) [Compound I-10]: the IC50 was in the range of 0.01 to 0.1 µM and the inhibition at 0.111 µM is 61%.

Turning to `CC(c1cccc(Br)n1)n1ccc(C(=O)c2cncnc2N[C@@H]2C[C@H](COS(N)(=O)=O)[C@@H](O)C2)n1` (single isomer, unassigned) [Compound I-65, [(1R,2S,4R)-4-{[5-({1-[(1S)-1-(6-bromopyridin-2-yl)ethyl]-1H-pyrazol-3-yl}carbonyl)pyrimidin-4-yl]amino}-2-hydroxycyclopentyl]methyl sulfamate or [(1R,2S,4R)-4-{[5-({1-[(1R)-1-(6-bromopyridin-2-yl)ethyl]-1H-pyrazol-3-yl}carbonyl)pyrimidin-4-yl]amino}-2-hydroxycyclopentyl]methyl sulfamate], the IC50 was less than 0.01 µM and the “Percent Inhibition” value worked out at 99%.

Source of the values: patent publication US9695154B2, “Heteroaryl inhibitors of sumo activating enzyme” (MILLENNIUM PHARMACEUTICALS, INC., priority 2013, dated 2017).
